Measured values taken from paper PMC11403616, “Arcopilins: A New Family of Staphylococcus aureus Biofilm Disruptors from the Soil Fungus Arcopilus navicularis” (Journal of Medicinal Chemistry, 2024).
Values after ≈ are worked out from the molar mass of the structure shown. “Also recorded” adds a separate entry of the source. Where two headings read alike, the source gives them in different places.

Tests used:
human cancer cell lines = conditions: cited from earlier work
two mammalian cell lines = assay: Cytotoxic effects on two mammalian cell lines (summary); assay type: cell-based; conditions: KB-3-1 and L929
Procedure: (§1) The antimicrobial activities of compounds 1–7 (Acp A–G) were assessed against different bacterial and fungal strains in addition to their cytotoxic effects on two mammalian cell lines. The tested microorganisms comprised a diverse array of clinically relevant pathogens, encompassing sensitive indicator strains. Among the Gram-positive bacteria were Bacillus subtilis, Staphylococcus aureus, and Mycolicibacterium smegmatis. Gram-negative bacteria included Acinetobacter baumannii, Chromobacterium violaceum, Escherichia coli, and Pseudomonas aeruginosa. Additionally, filamentous fungi such as Mucor hiemalis and yeasts including Candida albicans, Wickerhamomyces anomalus, Rhodotorula glutinis, and Schizosaccharomyces pombe were included. Generally, all compounds presented similar biological properties, summarized in weak or no activity against fungal pathogens as well as weak to moderate inhibition of Gram-positive bacteria (Table 2).
(§2) The antimicrobial and cytotoxic assays were performed according to the methods reported previously.[57]

B. subtilis DSM 10 = assay: MIC against bacteria (antimicrobial assay); assay type: cell-based, Bacillus subtilis; conditions: for MIC: Bacillus subtilis, DSM10, DSM 10, – = no activity observed under test conditions; for MIC B. subtilis: supplement CSV, decimal comma, unit not given, in µg/mL
Procedure: as §1, §2

KB-3-1 (ACC 158) = assay: Cytotoxicity against mammalian cell lines; assay type: cell-based; conditions: Homo sapiens
Procedure: as §1, §2

L929 (ACC 2) = assay: Cytotoxicity against mammalian cell lines; assay type: cell-based; conditions: Mus musculus
Procedure: as §1, §2

S. aureus DSM 346 = assay: MIC against bacteria (antimicrobial assay); assay type: cell-based, Staphylococcus aureus; conditions: for MIC: Staphylococcus aureus, DSM346, DSM 346, – = no activity observed under test conditions; for MIC S. aureus: supplement CSV, decimal comma, unit not given, in µg/mL
Procedure: as §1, §2

[1] = tested on: preformed biofilms of S. aureus DSM 1104; assay: CFU count analysis, synergistic effects on preformed biofilms; assay type: cell-based, Staphylococcus aureus; conditions: Acp A 7.8–3.9 μg/mL, GM 7.8–2 μg/mL, Vac 15.6–3.9 μg/mL
Procedure: The seed culture of S. aureus DSM 1104 was prepared as previously described, and the OD600 was adjusted to match the turbidity of a 0.001 McFarland standard. Then, 150 μL of bacterial solution in CASO with 4% glucose broth was incubated in 96-well tissue plates (TPP tissue culture ref no. 92196, Switzerland) for 24 h at 150 rpm. […] Methanol (2.5%) was used as the solvent control. The plates were incubated for a further 24 h at 37 °C. Colony-forming unit (CFU) count analysis of arcopilin A, antibiotics (vancomycin and gentamicin), and their combinations was performed as previously described.[58] Cells were suspended in the well 50 times. Dilution series in 1 to 10 steps (20 μL in 200 μL) were prepared down to a final dilution level of 10^–6, and 100 μL of this last dilution was platted on LB agar plates using 3 mm small glass beads (5 to 10, Omnilab, Germany) to homogeneously spread the liquid. Individual colonies on agar plates were counted after incubation at 30 °C for 24 and 48 h.[60] Afterward, CFUs were calculated by considering the dilution factors. Error bars indicate the SD of duplicate with two repeats.

[2] = tested on: planktonic cells of S. aureus DSM 1104; assay: Checkerboard broth dilution assay (FICI); assay type: cell-based, Staphylococcus aureus
Excerpt: After assessing the effects of Acp A on the pathogen S. aureus, we delved deeper into the interaction of Acp A with established antibiotics (GM and Vac). This exploration focused on both planktonic cells and preformed biofilms of S. aureus. Consequently, we used a checkerboard assay to determine the fractional inhibitory concentration index (FICI) for combinations involving Acp A, GM, or Vac based on both their MIC values in combination.[49]
The interaction between arcopilin A, vancomycin, and gentamicin against S. aureus DSM 1104 was evaluated using a checkerboard broth dilution method to determine the fractional inhibitory concentration indices (FICIs), calculated as FIC = MIC of drug A in combination/MIC of drug A alone + MIC of drug B in combination/MIC of drug B alone.[59] The FICIs were interpreted as synergistic (FICI ≤ 0.5). For this assay, a seed culture was prepared as previously described to inoculate fresh CASO with 4% glucose broth to match the turbidity of a 0.1 McFarland standard suspension. Then, 100 μL of bacterial suspension was distributed in 96-well nontissue microtiter plates (TPP nontissue culture ref no. 92197, Switzerland). Arcopilin A (7.8–2 μg/mL) and antibiotics (vancomycin and gentamicin: 31.3–0.016 μg/mL) were added in increasing concentrations in columns and rows, respectively. The experiments were conducted in duplicate.

[3] = tested on: preformed biofilms of S. aureus DSM 1104; assay: Disruption of preformed biofilms, crystal violet assay; assay type: cell-based, Staphylococcus aureus
Procedure: Therefore, Acp A–G were evaluated against preformed biofilms of S. aureus using crystal violet staining.[47]
Cultures of S. aureus DSM 1104 were prepared by inoculating 1 mL aliquots from a frozen stock (−20 °C) into 25 mL of CASO medium and incubating them overnight at 37 °C with shaking at 130 rpm.
The crystal violet assay was performed according to a previously reported procedure.[47] Arcopilins A–G were tested in serial dilutions (250–2 μg/mL), with methanol and microporenic acid A (MAA) as negative and positive controls, respectively. Statistical differences between samples and the controls were determined using a two-tailed Student’s t test, with statistical significance defined as p < 0.01. Statistical analysis was carried out using GraphPad Prism 9 (GraphPad Software, San Diego, CA).[58]

M. hiemalis DSM 2656 = assay: MIC against fungi (antimicrobial assay); assay type: cell-based, Mucor hiemalis; conditions: for MIC: Mucor hiemalis, DSM2656, DSM 2656, – = no activity observed under test conditions; for MIC M. hiemalis: supplement CSV, decimal comma, unit not given, in µg/mL
Procedure: as §1, §2

[4] = tested on: methicillin-resistant S. aureus (MRSA); conditions: cited from earlier work
S. aureus = conditions: cited from earlier work
[5] = tested on: different bacterial and fungal strains; assay: Antimicrobial activities against bacterial and fungal strains (whole panel); assay type: cell-based; conditions: whole panel of bacteria and fungi
Procedure: as §1, §2

M. smegmatis ATCC 700084 = assay: MIC against bacteria (antimicrobial assay); assay type: cell-based, Mycolicibacterium smegmatis
Procedure: as §1, §2

[6] = KB 3-1, ACC 158, – = no activity observed under test conditions, read-out: IC50 against mammalian cell lines, KB-3-1
[7] = L929, ACC 2, – = no activity observed under test conditions, read-out: IC50 against mammalian cell lines, L929

## myceliothermophin E
Human cancer cell lines
  antitumor activity against a number of human cancer cell lines: potent antitumor activity

## CC[C@H](C)[C@@H]1O[C@H](c2c(O)c(-c3ccccc3)cn(O)c2=O)[C@@H](C)C[C@@H]1C [Acp G, Arcopilin G]
Two mammalian cell lines
  cytotoxic properties (in words): most cytotoxic metabolite
B. subtilis DSM 10
  MIC: 8.3 µg/mL (≈ 22.3 µM)
  MIC B. subtilis: 8,3
KB-3-1 (ACC 158); [6]
  IC50: 0.2 ng/mL (≈ 0.000538 µM)
L929 (ACC 2); [7]
  IC50: 0.024 ng/mL (≈ 6.46e-05 µM)
S. aureus DSM 346
  MIC: 16.6 µg/mL (≈ 44.7 µM)
  MIC S. aureus: 16,6

## CN[C@H](CC(C)C)C(=O)N[C@H]1C(=O)N[C@@H](CC(N)=O)C(=O)N[C@H]2C(=O)N[C@H]3C(=O)N[C@H](C(=O)N[C@H](C(=O)O)c4cc(O)cc(O)c4-c4cc3ccc4O)[C@H](O)c3ccc(c(Cl)c3)Oc3cc2cc(c3O[C@@H]2O[C@H](CO)[C@@H](O)[C@H](O)[C@H]2O[C@H]2C[C@](C)(N)[C@H](O)[C@H](C)O2)Oc2ccc(cc2Cl)[C@H]1O [Vac, vancomycin]
[1]
  improvement in the inhibitory effects in combination with Acp A: ~3 fold
[2]; Acp A 3.9 μg/mL, MIC alone versus in combination
  increase of the potency of the antibiotic in combination with Acp A: ≤ 31 fold
[2]; Staphylococcus aureus, DSM1104, read-out: MIC of each single compound (MICs)
  MIC: 2 µg/mL
[2]; combination of Acp A (3.9 μg/mL) with Vac
  MIC in combination (MICc), Acp A and Vac: 0.065 µg/mL

## C/C=C(\C)[C@H]1C(C)=C[C@@]2(C)C[C@@H](C)CC[C@@H]2[C@H]1C(=O)C1=C[C@@](CC(C)C)(OC)NC1=O [myceliothermophin C]
Human cancer cell lines
  antitumor activity against a number of human cancer cell lines: potent antitumor activity

## C[C@H](C[C@@H](C)[C@H](C)OC=O)C[C@H](C)C(=O)C1=C(O)/C(=C/c2ccccc2)NC1=O [Acp C, Arcopilin C]
B. subtilis DSM 10
  MIC: 33.3 µg/mL (≈ 83.4 µM)
  MIC B. subtilis: 33,3
[3]; at 3.9 μg/mL
  efficacy toward preformed biofilms: 35–45%
[3]; between 7.8 μg/mL and 250 μg/mL
  effectiveness in the dispersal of preformed biofilms: approximately 50%
[3]; tested 250–2 μg/mL
  disrupting effect on preformed biofilms (in words): most promising disrupting effects; also recorded: remarkable effectiveness
KB-3-1 (ACC 158); [6]
  IC50: 800 ng/mL (≈ 2 µM)
L929 (ACC 2); [7]
  IC50: 1400 ng/mL (≈ 3.5 µM)
S. aureus DSM 346
  MIC: 33.3 µg/mL (≈ 83.4 µM)
  MIC S. aureus: 33,3
M. hiemalis DSM 2656
  MIC: 66.7 µg/mL (≈ 167 µM)
  MIC M. hiemalis: 66,7

## C/C=C(\C)[C@@H]1C(C)=C[C@]2(C)C[C@H](C)CC[C@H]2[C@@H]1C(=O)C1=C[C@](Cc2ccccc2)(OC)NC1=O [chaetolivacine B]
[4]
  antibacterial properties against MRSA: moderate antibacterial properties
S. aureus
  antibacterial properties against S. aureus: moderate antibacterial properties

## C[C@H](C[C@@H](C)[C@H](C)O)C[C@H](C)C(=O)C1=C(O)/C(=C/c2ccccc2)NC1=O [Acp B, Arcopilin B]
Two mammalian cell lines
  cytotoxic properties (in words): weak or no cytotoxic effects
B. subtilis DSM 10
  MIC: 66.7 µg/mL (≈ 180 µM)
  MIC B. subtilis: 66,7
S. aureus DSM 346
  MIC: 66.7 µg/mL (≈ 180 µM)
  MIC S. aureus: 66,7

## C[C@@H](C[C@H](C)C(=O)C1=C(O)/C(=C/c2ccccc2)NC1=O)C[C@](C)(O)[C@@H](O)C(=O)O [Acp F, Arcopilin F]
Two mammalian cell lines
  cytotoxic properties (in words): weak or no cytotoxic effects
[5]
  antimicrobial activity (in words): did not exhibit any antimicrobial activity

## C/C=C(\C)[C@H]1C(C)=C[C@@]2(C)C[C@@H](C)CC[C@@H]2[C@H]1C(=O)C1=C[C@](CC(C)C)(OC)NC1=O [myceliothermophin D]
Human cancer cell lines
  antitumor activity against a number of human cancer cell lines: potent antitumor activity

## C[C@@H](C[C@H](C)C(=O)C1=C(O)/C(=C/c2ccccc2)NC1=O)C[C@](C)(O)C(=O)CO [Acp E, Arcopilin E]
Two mammalian cell lines
  cytotoxic properties (in words): weak or no cytotoxic effects
[5]
  antimicrobial activity (in words): did not exhibit any antimicrobial activity

## C/C(=C\c1csc(C)n1)[C@@H]1C[C@@H]2O[C@]2(C)CCC[C@H](C)[C@H](O)[C@@H](C)C(=O)C(C)(C)[C@@H](O)CC(=O)O1 [Epothilone B, reference compound]
KB-3-1 (ACC 158); KB 3-1, read-out: IC50 against mammalian cell lines, KB-3-1
  IC50: 0.0086 ng/mL (≈ 1.69e-05 µM)
L929 (ACC 2); L929, read-out: IC50 against mammalian cell lines, L929
  IC50: 0.086 ng/mL (≈ 0.000169 µM)

## CC[C@H](C)C[C@@H](C)C[C@H](C)C(=O)C1=C(O)/C(=C/c2ccccc2)NC1=O [Acp D, Arcopilin D]
M. smegmatis ATCC 700084; Mycolicibacterium smegmatis, ATCC700084, ATCC 700084, – = no activity observed under test conditions
  MIC: 66.7 µg/mL (≈ 188 µM)
M. smegmatis ATCC 700084; supplement CSV, decimal comma, unit not given, in µg/mL
  MIC M. smegmatis: 66,7
B. subtilis DSM 10
  MIC: 4.2 µg/mL (≈ 11.8 µM)
  MIC B. subtilis: 4,2
[3]
  lowest concentration with significant dispersal effects: 31.3 µg/mL
KB-3-1 (ACC 158); [6]
  IC50: 800 ng/mL (≈ 2.25 µM)
L929 (ACC 2); [7]
  IC50: 1700 ng/mL (≈ 4.78 µM)
M. hiemalis DSM 2656
  MIC: 66.7 µg/mL (≈ 188 µM)
  MIC M. hiemalis: 66,7

## CN(C)[C@@H]1C(O)=C(C(N)=O)C(=O)[C@@]2(O)C(O)=C3C(=O)c4c(O)cccc4[C@@](C)(O)[C@H]3[C@H](O)[C@@H]12 [Oxytetracycline, reference compound]
B. subtilis DSM 10
  MIC: 8.3 µg/mL (≈ 18 µM)
